Here are results for two molecules from US20240180881A1, “METHODS FOR DECREASING RESISTANCE TO CHEMOTHERAPY” (National Institute of Immunology, priority 2022, published 2024).

For experiment [1], the system named is HCT116 WT cells. The experiment can be described thus: MTT assay, chemotherapeutic drug gradient with or without disruptor. It is filed as cell-based. As to conditions: for EC50: MTT, 72 hours. The method, then: (§1) The three resistant lines and their wildtype counterpart HCT116 were exposed to a gradient of CPT, CDDP or 1-OHP.
(§2) Concentrations of CPT used: 0.140 nM, 20 nM, 50 nM, 1000 nM. Concentration of 1-OHP: 0.14 μM, 2 μM, 4 μM, 6 μM, 8 μM. Concentrations of CDDP used: 0.140 μM, 2 μM, 5 μM, 10 μM. The percentage of viable cells were determined by MTT assays (FIG. 12A-12C). The data in FIG. 12A and FIG. 12C is from three independent experiments and the data in FIG. 12B is from nine independent experiments. […] The levels of MRP2, MRP3, MRP5, MXR were quantitated from three independent experiments. […] Specifically, HCT116 IC60 CPTR cells were transfected with the HR substrate for 72 hours and the levels of HR was determined (FIG. 6A). The data is from three independent experiments. […] The number of soft agar colonies in each condition were counted. The data is from three independent experiments.
To generate camptothecin and cisplatin resistant cells (named as HCT116 IC60 CPT^R, HCT116 IC60 CDDP^R respectively), HCT116 wild type were seeded in a 10 cm dish to a confluency of 80%. The IC20 concentrations of cisplatin (3.38 μM) and camptothecin (12.6 nM) was added for 2 hours and 6 hours, respectively. Post treatment, the cells were washed twice with 1×PBS and fresh media was added. After every 48 hours, the media was changed and IC20 concentration of the drugs were added only if the confluency of cells was at least 80%. […] Resistant index was calculated using the following formula: Resistant index=IC60 of the resistant cells/IC60 of the parental cells.
Cells were seeded in a 96-well plate overnight. Next day, the culturing media was replaced with Optimem media, followed by incubation with BLM_CPP or SCM_CPP for 1 hr. The final concentrations of the peptides were 450 nM for cisplatin (CDDP) and 180 nM (for all other drugs). […] Post treatment, the cells were washed with 1×PBS and fresh media was added. After 72 hours, MTT assay was carried out to determine the percentage cell viability of the cells with respect to the untreated cells.
(Formazan colour is commonly taken as a measure of viable cells.)

Experiment [2] deals with HCT116 IC60 1-OHPR cells. As to conditions: read-out: EC50 (μM), HCT116 1-OHP^R + 1-OHP; 1-OHP gradient alone, MTT, 72 hours. The method, then:
as §1, §2
(§3) To generate camptothecin and cisplatin resistant cells (named as HCT116 IC60 CPT^R, HCT116 IC60 CDDP^R respectively), HCT116 wild type were seeded in a 10 cm dish to a confluency of 80%. The IC20 concentrations of cisplatin (3.38 μM) and camptothecin (12.6 nM) was added for 2 hours and 6 hours, respectively. […] Resistant index was calculated using the following formula: Resistant index=IC60 of the resistant cells/IC60 of the parental cells. […]

Experiment [3] has as its system HCT116 IC60 CDDPR cells. Briefly: MTT assay, CDDP gradient with or without disruptor. It is filed as cell-based. As to conditions: CDDP gradient alone, 72 hours, read-out: EC50 (μM), HCT116 WT CDDP^R. The method, then: as §1, §2, §3
[4] abbreviates: HCT116, used to generate resistant cells.

Like-named read-outs stand apart in the source and are kept apart here.

For orientation: EC50 means the concentration needed to bring the measured effect to its halfway point. Take `N[C@@H]1CCCC[C@H]1N.O=C([O-])C(=O)[O-].[Pt+2]` [1-OHP, oxaliplatin]: the 50% effective concentration (EC50) came to 4.77 µM in experiment [1] (1-OHP gradient alone, read-out: EC50 (μM), HCT116 WT + 1-OHP) and 14.1 µM in experiment [2].

Turning to `[NH2][Pt]([NH2])([Cl])[Cl]` [CDDP, cisplatin], the EC50 in experiment [1] (CDDP gradient alone, read-out: EC50 (μM), HCT116 WT) was determined as 3.78 µM. In experiment [1] (setting [4]), the IC40 concentration turned out to be 15.5 µM and the IC60 concentration was found to be 35.09 µM. The IC20 in experiment [1] (HCT116 wild type, used to generate resistant cells, read-out: IC20 concentration) turned out to be 3.38 µM. Moreover, the EC50 in experiment [3] was determined as 21.7 µM.
